Columns and labels:
[1] = test system: WI-38; test: Cytotoxicity against human WI-38 cells assessed as reduction in cell viability after 72 hrs by SRB assay; type: cell-based; conditions: WI-38, 72 h
[2] = test system: A549; test: Antiproliferative activity against human A549 cells assessed as inhibition of cell growth at 100 microM measured after 72 hrs by SRB assay; type: functional
[3] = test system: HepG2; test: Antiproliferative activity against human HepG2 cells assessed as inhibition of cell growth at 100 microM measured after 72 hrs by SRB assay; type: functional
[4] = test system: MCF7; test: Antiproliferative activity against human MCF-7 cells assessed as inhibition of cell growth at 100 microM measured after 72 hrs by SRB assay; type: functional
[5] = test system: A549; test: Antiproliferative activity against human A549 cells assessed as cell growth inhibition measured after 72 hrs by SRB assay; type: functional, cell-based; conditions: A549, 72 h
[6] = test system: HepG2; test: Antiproliferative activity against human HepG2 cells assessed as cell growth inhibition measured after 72 hrs by SRB assay; type: functional, cell-based; conditions: HepG2, 72 h
[7] = test system: MCF7; test: Antiproliferative activity against human MCF-7 cells assessed as cell growth inhibition measured after 72 hrs by SRB assay; type: functional, cell-based; conditions: MCF7, 72 h
[8] = test system: MCF7; test: Induction of apoptosis in human MCF-7 cells assessed as early apoptotic cells at IC50 measured after 24 hrs by Annexin V-FITC/propidium iodide staining based flow cytometry (reference value: 0.4%); type: functional
[9] = test system: MCF7; test: Induction of apoptosis in human MCF-7 cells assessed as late apoptotic cells at IC50 measured after 24 hrs by Annexin V-FITC/propidium iodide staining based flow cytometry (reference value: […]); type: functional
[10] = test system: MCF7; test: Induction of apoptosis in human MCF-7 cells assessed as necrotic cells at IC50 measured after 24 hrs by Annexin V-FITC/propidium iodide staining based flow cytometry (reference value: 1.27%); type: functional
[11] = test system: A549; test: Induction of apoptosis in human A549 cells assessed as early apoptotic cells at IC50 measured after 24 hrs by annexin V-FITC staining based flow cytometry (reference value: 0.63%); type: functional
[12] = test system: A549; test: Induction of apoptosis in human A549 cells assessed as late apoptotic cells at IC50 measured after 24 hrs by annexin V-FITC staining based flow cytometry (reference value: […]); type: functional
[13] = test system: A549; test: Induction of apoptosis in human A549 cells assessed as necrotic cells at IC50 measured after 24 hrs by annexin V-FITC staining based flow cytometry (reference value: 1.01%); type: functional
[14] = test system: MCF7; test: Induction of apoptosis in human MCF7 cells assessed as caspase-9 expression at IC50 by ELISA (reference value: 1.77 +/- 0.1 ng/ml); type: functional
[15] = test system: MCF7; test: Induction of apoptosis in human MCF7 cells assessed as fold change in caspase-9 expression at IC50 by ELISA relative to control; type: functional
[16] = test system: MCF7; test: Induction of apoptosis in human MCF7 cells assessed as Bax expression at IC50 by ELISA (reference value: 45.46 +/- 3.6 pg/ml); type: functional
[17] = test system: MCF7; test: Induction of apoptosis in human MCF7 cells assessed as fold change in Bax expression at IC50 by ELISA relative to control; type: functional
[18] = test system: MCF7; test: Induction of apoptosis in human MCF7 cells assessed as Bcl-2 expression at IC50 by ELISA (reference value: 7.49 +/- 0.1 ng/ml); type: functional
[19] = test system: MCF7; test: Induction of apoptosis in human MCF7 cells assessed as fold change in Bcl-2 expression at IC50 by ELISA relative to control; type: functional
[20] = test system: A549; test: Induction of apoptosis in human A549 cells assessed as caspase-9 expression at IC50 by ELISA (reference value: […] +/- […] ng/ml); type: functional
[21] = test system: A549; test: Induction of apoptosis in human A549 cells assessed as fold change in caspase-9 expression at IC50 by ELISA relative to control; type: functional
[22] = test system: A549; test: Induction of apoptosis in human A549 cells assessed as Bax expression at IC50 by ELISA (reference value: 42.16 +/-6.2 pg/ml); type: functional
[23] = test system: A549; test: Induction of apoptosis in human A549 cells assessed as fold change in Bax expression at IC50 by ELISA relative to control; type: functional
[24] = test system: A549; test: Induction of apoptosis in human A549 cells assessed as Bcl2 expression at IC50 by ELISA (reference value: 9.04 +/-0.1 ng/ml); type: functional
[25] = test system: A549; test: Induction of apoptosis in human A549 cells assessed as fold change in Bcl2 expression at IC50 by ELISA relative to control; type: functional
[26] = Toxicity in ip dosed BALB/c mouse measured for 3 days; type: organism-based; conditions: in vivo, time 3 day
[27] = test system: MCF7; test: Antitumor activity against human MCF7 cells xenografted in BALB/c mouse assessed as reduction in tumor volume at 23 mg/kg, ip administered thrice a week for 28 days by vernier caliper analysis; type: functional; conditions: time 28 day
[28] = test system: MCF7; test: Induction of cell cycle arrest in human MCF7 cells assessed as accumulation at pre-G1 phase at IC50 measured after 24 hrs by propidium iodide/RNase staining based flow cytometry (reference value: 1.96%); type: functional
[29] = test system: MCF7; test: Induction of cell cycle arrest in human MCF7 cells assessed as accumulation at G0/G1 phase at IC50 measured after 24 hrs by propidium iodide/RNase staining based flow cytometry (reference value: 51.72%); type: functional
[30] = test system: MCF7; test: Induction of cell cycle arrest in human MCF7 cells assessed as accumulation at G2/M phase at IC50 measured after 24 hrs by propidium iodide/RNase staining based flow cytometry (reference value: 18.4%); type: functional
[31] = test system: MCF7; test: Induction of cell cycle arrest in human MCF7 cells assessed as accumulation at S phase at IC50 measured after 24 hrs by propidium iodide/RNase staining based flow cytometry (reference value: 29.88%); type: functional
[32] = test system: MCF7; test: Induction of cell cycle arrest in human MCF7 cells assessed as reduction in accumulation at G0/G1 phase at IC50 measured after 24 hrs by propidium iodide/RNase staining based flow cytometry relative to control; type: functional
[33] = test system: MCF7; test: Induction of cell cycle arrest in human MCF7 cells assessed as increase in accumulation at G2/M phase at IC50 measured after 24 hrs by propidium iodide/RNase staining based flow cytometry relative to control; type: functional
[34] = test system: MCF7; test: Induction of cell cycle arrest in human MCF7 cells assessed as increase in accumulation at pre-G1 phase at IC50 measured after 24 hrs by propidium iodide/RNase staining based flow cytometry relative to control; type: functional
[35] = test system: A549; test: Induction of cell cycle arrest in human A549 cells assessed as accumulation at pre-G1 phase at IC50 measured after 24 hrs by propidium iodide/RNase staining based flow cytometry (reference value: 1.93%); type: functional
[36] = test system: A549; test: Induction of cell cycle arrest in human A549 cells assessed as accumulation at G0/G1 phase at IC50 measured after 24 hrs by propidium iodide/RNase staining based flow cytometry (reference value: 58.26%); type: functional
[37] = test system: A549; test: Induction of cell cycle arrest in human A549 cells assessed as accumulation at G2/M phase at IC50 measured after 24 hrs by propidium iodide/RNase staining based flow cytometry (reference value: 9.86%); type: functional
[38] = test system: A549; test: Induction of cell cycle arrest in human A549 cells assessed as accumulation at S phase at IC50 measured after 24 hrs by propidium iodide/RNase staining based flow cytometry (reference value: 31.88%); type: functional
[39] = test system: MCF7; test: Induction of apoptosis in human MCF-7 cells assessed as total apoptotic cells at IC50 measured after 24 hrs by Annexin V-FITC/propidium iodide staining based flow cytometry (reference value: 0.69%); type: functional
[40] = test system: A549; test: Induction of apoptosis in human A549 cells assessed as total apoptotic cells at IC50 measured after 24 hrs by Annexin V-FITC/propidium iodide staining based flow cytometry (reference value: 0.92%); type: functional
[41] = Toxicity in BALB/c mouse xenografted with human MCF7 cells assessed as body weight at 23 mg/kg, ip administered thrice a week for 28 days measured on day 28 (reference value: 31.3 gms); type: organism-based; conditions: in vivo, 672 h, time 28 day

`O=c1[nH]cc(F)c(=O)[nH]1` [FLUOROURACIL] showed an IC50 [1] of 78500 nM, an inhibition at 100 µM [2] of 89.3% and an inhibition at 100 µM [3] of 80.7%. The inhibition at 100 µM [4] was 90.7%, the IC50 [5] was 690 nM and the IC50 [6] was 520 nM. For the same molecule, the IC50 [7] was 590 nM, the Activity [8] was 7.26% and the Activity [9] was 17.71%. It also gave an Activity [10] of 2.55%, an Activity [11] of 4.29% and an Activity [12] of 20.68%. The Activity [13] was 3.11%, the Activity [14] was 20.87 ng/mL and the “fold change (FC)” value [15] was 11.8. The Activity [16] was 289.9 pg/mL, the “fold change (FC)” value [17] was 6.37 and the Activity [18] was 2.23 ng/mL. The “fold change (FC)” value [19] was 0.3, the Activity [20] was 13.98 ng/mL and the “fold change (FC)” value [21] was 11.63. The Activity [22] was 376.9 pg/mL, the “fold change (FC)” value [23] was 8.93 and the Activity [24] was 6.21 ng/mL. The “fold change (FC)” value [25] was 0.68, the LD50 at 72 h [26] was 57.2 mg/kg and the Activity [27] was 0.41 cm3. For the same molecule, the Activity [28] was 27.52%, the Activity [29] was 34.09% and the Activity [30] was 42.07%. For the same molecule, the Activity [31] was 23.84%, the “fold change (FC)” value [32] was 1.5 and the “fold change (FC)” value [33] was 2.3. For the same molecule, the “fold change (FC)” value [34] was 14, the Activity [35] was 28.08% and the Activity [36] was 36.47%. The Activity [37] was 37.82%, the Activity [38] was 25.71% and the Activity [39] was 24.97%. The Activity [40] was 24.97% and the Activity [41] was 24.5 g.
